# Experimental data from patent publication US4775662A, “Leukotriene antagonists” (SmithKline Beckman Corporation, priority 1987, dated 1988).
# Where a name gives a salt, the structure may show the parent alone.
# What was measured:
# [1] = test system: leukotriene (LTD4) induced bronchoconstriction in guinea pigs; assay: In vivo inhibition of LTD4-induced bronchoconstriction in anesthetized, spontaneously breathing guinea pigs (airway resistance, RL); design: species or system guinea pig (adult male albino Hartley strain); conditions: Cavia porcellus, intravenous, LTD4 challenge, guinea pig, read-out: RL (average % inhibition of change in airway resistance)
# Experimental: (§1) The leukotriene antagonist activity of the compounds of this invention is measured by the ability of the compound to inhibit leukotriene induced contraction of guinea pig tracheal tissues in vitro and to inhibit leukotriene induced bronchoconstriction in guinea pigs in vivo. The following methodologies were employed:
# (§2) Calculations: The averages of the triplicate LTD4 concentration-response curves both in the presence and absence of the test compound were plotted on log graph paper. The concentration of LTD4 needed to elicit 30% of the contraction elicited by carbachol was measured and defined as the EC30. The pA2 value for the test compound was determined by the following equations: [formula] In vivo: Anesthetized, spontaneously breathing guinea pigs (Adult male albino Hartley strain) were monitored on a Buxco pulmonary mechanics computer. Changes in airway resistance (RL) were calculated by the computer on a breath-by-breath basis at isovolumic points from signals measuring airflow and transpulmonary pressure using differential pressure transducers. Animals received either test compound or vehicle control intravenously via the jugular vein. LTD4 was then injected into the jugular vein. The bronchoconstriction produced was reflected by % changes in airways resistance relative to the baseline values obtained prior to injection of the test compound or vehicle control. Each guinea pig received either vehicle control or test compound.
# Calculations: The average of 3-6 animals per treatment was calculated using the % changes in the pulmonary parameters for control and test compound-treated animals. The average % inhibition by the test compound was calculated from the following equation: [formula]
# [2] = target: T1, leukotriene D4 (LTD4) induced contraction of guinea pig tracheal tissues (Cavia porcellus, UniProt Q2NNR5); assay: In vitro inhibition of LTD4-induced contraction of guinea pig tracheal spiral strips (pA2); format: cell-based, guinea pig (adult male albino Hartley strain); conditions: for Kb: In vitro, LTD4, guinea pig trachea, EC30 relative to carbachol, 30 min pretreatment
# T1 construct: Guinea pig (adult male albino Hartley strain) tracheal spiral strips; from tissue; host or cells: guinea pig trachea (spiral strips, adult male albino Hartley strain)
# T1 sequence (Q2NNR5 1-340): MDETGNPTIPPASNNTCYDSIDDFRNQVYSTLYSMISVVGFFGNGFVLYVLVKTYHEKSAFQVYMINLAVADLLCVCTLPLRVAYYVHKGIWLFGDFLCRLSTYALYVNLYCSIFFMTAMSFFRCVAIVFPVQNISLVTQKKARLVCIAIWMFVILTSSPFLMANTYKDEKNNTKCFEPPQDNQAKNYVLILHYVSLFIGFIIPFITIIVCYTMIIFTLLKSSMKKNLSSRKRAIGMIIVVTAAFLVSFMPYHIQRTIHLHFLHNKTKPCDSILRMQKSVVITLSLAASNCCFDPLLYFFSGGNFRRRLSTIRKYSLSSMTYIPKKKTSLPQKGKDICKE
# Experimental: as §1
# In vitro: Guinea pig (adult male albino Hartley strain) tracheal spiral strips of approximate dimensions 2 to 3 mm cross-sectional width and 3.5 cm length were bathed in modified Krebs buffer in jacketed 10 ml tissue bath and continously aerated with 95% O2 /5% CO2. The tissues were connected via silk suture to force displacement transducers for recording isometric tension. The tissues were equilibrated for 1 hr., pretreated for 15 minutes with meclofenamic acid (1 μM) to remove intrinsic prostaglandin responses, and then pretreated for an additional 30 minutes with either the test compound or vehicle control. A cumulative concentration-response curve for LTD4 on triplicate tissues was generated by successive increases in the bath concentration of the LTD4. In order to minimize intertissue variability, the contractions elicited by LTD4 were standardized as a percentage of the maximum response obtained to a reference agonist, carbachol (10 μM).
# as §2
SMILES,inhibition in vivo at 5 mg/kg [1] [%],Kb [2] [µM],partial agonist (footnote to pA2) ([2]; footnote (c) to pA2 5.0),inhibition in vivo at 10 mg/kg [1] [%]
"CCCCCCCCCCCC/C=C\[C@H](SCCCC(=O)O)[C@H](O)CCC(=O)O (relative stereo) [Example 6, 5-[(3-carboxypropyl)thio]-4-hydroxy-6(Z)-nonadecenoic acid]",88,0.631,,
"CCCCCCCCCCCCCC/C=C\[C@H](SCCC(=O)O)[C@H](O)CCC(=O)O (relative stereo) [Example 15, 4-hydroxy-5-[(2-carboxyethyl)thio]-6(Z)-heneicosenoic acid]",,7.94,,
"CCCCCCCCCCCC/C=C\[C@@H](SCC(N)C(=O)NCC(=O)O)[C@@H](O)CCC(=O)O (single isomer, unassigned; isomer 5) [Example 1(i) 4(S),5(R) isomer, 5-[(2-amino-3-carboxymethylamino-3-oxopropyl)thio]-4-hydroxy-6(Z)-nonadecenoic acid]",,10,partial agonist,
"CCCCCCCCCC/C=C\[C@H](SCCC(=O)O)[C@H](O)CCC(=O)O (relative stereo) [Example 14, 4-hydroxy-5-[(2-carboxyethyl)thio]-6(Z)-heptadecenoic acid]",,5.01,,
"CCCCCCCCCCCC/C=C\[C@H](SCCC(N)=O)[C@H](O)CCC(=O)O (relative stereo) [Example 7, 5-[[2-(aminocarbonyl)ethyl]thio]-4-hydroxy-6(Z)-nonadecenoicacid]",38,7.94,,
"CCCCCCCCCCCC/C=C\[C@H](SCCC(=O)O)[C@H](O)CCC(N)=O (relative stereo) [Example 12, 5-[(2-carboxyethyl)thio]-4-hydroxy-6(Z)-nonadecenamide]",,3.98,,
"CCCCCCCCCCCC/C=C\[C@H](SCC(=O)O)[C@H](O)CCC(=O)O (relative stereo) [Example 5, 5-[(carboxymethyl)thio]-4-hydroxy-6(Z)-nonadecenoic acid]",,1.26,,
"CCCCCCCCCCCC/C=C\[C@@H](SCC(N)C(=O)O)[C@@H](O)CCC(=O)O (stereo partly drawn) [Example 8(d), 4(S)-Hydroxy-5(R)-[(2-amino-2-carboxyethyl)thio]-6(Z)-nonadecenoic acid, sodium salt]",,7.94,,
"CCCCCCCCCCCC/C=C\[C@H](SCCC(=O)O)[C@H](O)CCC(=O)O (relative stereo) [Example 2, 4-hydroxy-5-[(2-carboxyethyl)thio]-6(Z)-nonadecenoic acid]",91,0.631,,
"CCCCCCCCCCCC/C=C\C(CCCC(=O)O)SCCC(=O)O (centres unmarked) [Example 11, 5-[(2-carboxyethyl)thio]-6(Z)-non-adecenoic acid]",,3.16,,98
CCCCCCCCCCCC/C=C\[C@H](SCC(N)C(=O)NCC(N)=O)[C@H](O)CCC(=O)O (some centres unmarked) [Example 9],98,3.16,,
"CCCCCCCCCCCC/C=C\[C@H](SCC(N)C(=O)NCC(=O)O)[C@H](O)CCC(=O)O (single isomer, unassigned; isomer 4) [Example 1(i) 4(R),5(S) isomer, hydrate]",96,6.31,,
"CCCCCCCCCCCC/C=C\[C@H](SCCC(=O)NCC(=O)O)[C@H](O)CCC(=O)O (relative stereo) [Example 3, 5-[(3-carboxymethylamino-3-oxopropyl)thio]-4-hydroxy-6(Z)-nonadecenoic acid]",36,0.631,,
"CCCCCCCCCCCC/C=C\[C@H](SCC(N)C(=O)O)[C@H](O)CCC(=O)O (stereo partly drawn) [Example 8(c), 4(R)-Hydroxy-5(S)-[(2-amino-2-carboxyethyl)thio]-6(Z)-nonadecenoic acid, sodium salt]",,7.94,,
"CCCCCCCCCCCC/C=C\[C@H](SCCC(=O)N(C)CC(=O)O)[C@H](O)CCC(=O)O (relative stereo) [Example 4, 5-[(3-carboxymethyl-N-methylamino-3-oxopropyl)thio]-4-hydroxy-6(Z)-nonadecenoic acid]",90,,,
CCCCCCCCCCCC/C=C\C(SCC(N)C(=O)NCC(=O)O)C(O)CCC(N)=O (centres unmarked) [Example 13],,12.6,,
"CCCCCCCCCCCC/C=C\C(CCC(=O)O)SCCC(=O)O (centres unmarked) [Example 16, 4-[(2-carboxyethyl)thio]-5(Z)-octadecenoic acid]",,0.251,,
"CCCCCCCCCCCC/C=C\C(SCCC(=O)O)C(O)CC(=O)O (centres unmarked) [Example 10, 3-hydroxy-4-[(2-carboxyethyl)thio]-5(Z)-octadecenoic acid]",,,,88
